Assay results: USRE43712E1, “Methods for assaying for antidepressant therapy markers” (The Board of Trustees of the Uniersity of Illinois, priority 2000, dated 2012)

Tested on: adenylyl cyclase
Test: Adenylyl cyclase activity in sucrose density gradient fractions of Triton X-100-solubilized C6-2B cells
Format: cell-based
Conditions: 10 μM desipramine-treated C6-2B cells
Experimental: C6-2B cells treated as described above were used to prepare Triton-insoluble, caveolin-enriched membrane fractions by the procedure of Li et al. [J. Biol. Chem., 270:15693-15701; 1995] with minor modifications. In brief, C6-2B cells were harvested into 0.75 ml of HEPES buffer (10 mM HEPES, pH 7.5, 150 mM NaCl, 1 mM DTT, 0.3 mM PMSF) containing 1% Triton X-100. Homogenization was carried out with 10 strokes of a Potter-Elvehjem homogenizer. The homogenate was adjusted to 40% sucrose by the addition of an equal volume of 80% sucrose prepared in HEPES buffer and placed at the bottom of an ultracentrifuge tube. A step gradient containing 30, 15, and 5% sucrose was formed above the homogenate and centrifuged at 50,000 rpm for 20 h in an SW65 rotor (240,000 g). Two or three opaque bands confined between the 15 and 30% sucrose layers were harvested, diluted threefold with HEPES buffer, and pelleted in a microcentrifuge at 16,000 g. The pellet was resuspended in HEPES buffer and identified as the Triton-insoluble fraction. The 40% sucrose region of the gradient was saved as the Triton-soluble fraction. In separate experiments, the same conditions were used, but instead of isolating the three opaque bands, 100-μl fractions were collected and assayed for Gs content and adenylyl cyclase activity.
Adenylyl cyclase was assayed as described previously [Rasenick et al., Brain Res., 488:105-113; 1989]. […]

CNCCCN1c2ccccc2CCc2ccccc21 [Desipramine, desipramine]
Basal adenylyl cyclase activity (gradient fractions): unchanged | Forskolin-stimulated adenylyl cyclase activity compared with control (gradient fractions 11 and 12, 10^−4 M forskolin): almost a twofold increase
